Reference: patent US20220395500A1, “SMALL MOLECULE ACTIVATORS OF INTERFERON REGULATORY FACTOR 3 AND METHODS OF USE THEREOF” (Neuralexo, Inc., priority 2020, published 2022)
Like-named read-outs stand apart in the source and are kept apart here.

Tests used:
Format in all cases: cell-based, human
[1] = system: IRF-Lucia luciferase reporter (ISRE) in THP1-Dual cells; assay: THP1-Dual IRF-Lucia luciferase reporter assay (ISRE activation); settings: for EC50: read-out: THP1 IRF EC50; for IRF3 and NF-κB reporter activity: human THP1 and mouse J774 macrophage-like cells
Outline: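 Supernatant luminescence from the ISG54/ISRE-driven Lucia reporter was measured after 24 h exposure to 10 μM compound (LPS 313 ng/mL in control wells).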

[2] = system: NF-κB-SEAP reporter in THP1-Dual cells; assay: THP1-Dual NF-κB-SEAP reporter counterscreen; settings: for EC50: read-out: THP1 NFkB EC50
Outline: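 Reporters measured from supernatant after 24 h compound exposure (10 μM final) in PMA-differentiated (5 ng/mL, 48 h) THP-1 Dual monocytes: ISG54/ISRE-driven Lucia via QUANTI-Luc luminescence; NF-κB-driven SEAP via QUANTI-Blue, 1 h 37° C, 630 nm. Control wells received LPS at 313 ng/mL.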

[3] = THP1-Dual cytotoxicity (Cell Titer Glo, ATP); settings: human, THP1-Dual cells, read-out: Thp1 cytotox CC50
Outline: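 CC50, the concentration killing half the cells, was derived from ATP-dependent CellTiter-Glo luminescence. Cells were THP1-Dual (human) and compound was tested as an 8-point dose-response series, with viability read in the same plate.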

[4] = Homo sapiens, THP1-Dual, Human Reporter Cell Line, 8-point dose response
[5] = Homo sapiens, THP1-Dual, Human Reporter Cell Line THP1

EC50 [1, 4] | EC50 [1, 5] | Structure (SMILES) | CC50 ([3]; Human Reporter Cell Line) | EC50 [2, 4] | CC50 ([3]; Human Reporter Cell Line THP1) | EC50 [2, 5] | also measured
~2.53 µM | – | O=C(Nc1ccc(N2CCN(C(=O)c3cccs3)CC2)cc1)c1ccc(OCc2ccccc2)nc1 [NA-59] | 16 µM | ~2.57 µM | – | – | –
7.98 µM | – | Cc1cc(NC(=O)c2sc3cc(Cl)ccc3c2Cl)ccc1NC(=O)c1ccco1 [NC-2] | > 25 µM | 15.4 µM | – | – | –
– | 3.27 µM | Cc1ccc(NC(=O)c2cc(NC(=O)c3cccs3)ccc2N2CCOCC2)cc1Br [NB-23] | – | – | 30.5 µM | 4.59 µM | –
– | 8.42 µM | O=C(Cc1ccc(Cl)cc1)Nc1cccc(-c2nnc(-c3ccco3)o2)c1 [ND-7] | – | – | > 25 µM | 6 µM | –
4.45 µM | – | COc1ccc(C(=O)Nc2ccc(OCc3ccccc3)cc2)cc1[N+](=O)[O-] [NA-44] | 50.3 µM | 0.92 µM | – | – | –
– | 3.12 µM | COc1ccc(-c2nc3cc(C(C)C)ccc3o2)cc1NC(=O)c1ccc(C)c([N+](=O)[O-])c1 [ND-16] | – | – | 32.7 µM | 3.25 µM | –
– | 0.59 µM | COCOc1ccc2oc(-c3ccc(C)c(NC(=O)c4ccc(OC)c([N+](=O)[O-])c4)c3)nc2c1 [ND-95, 4-methoxy-N-(5-(5-(methoxymethoxy)benzo[d]oxazol-2-yl)-2-methylphenyl)-3-nitrobenzamide] | – | – | 26.7 µM | 1.27 µM | –
– | 4.7 µM | Cc1ccc(NC(=O)c2cc(NC(=O)c3cccs3)ccc2N2CCOCC2)cc1Cl [NB-8] | – | – | > 25 µM | 13.9 µM | –
– | 10.6 µM | COc1ccc(C(=O)Nc2cccc(-c3nc4ncccc4o3)c2)cc1Br [ND-47] | – | – | > 25 µM | 2.1 µM | –
– | 6.16 µM | Cc1ccc(-c2nc3ccccc3s2)cc1NC(=O)c1cccc(Cl)c1 [ND-80] | – | – | 33.9 µM | ~6.55 µM | –
– | 3.89 µM | COc1ccc(C(=O)Nc2cc(-c3nc4ccccc4s3)ccc2C)cc1[N+](=O)[O-] [ND52, N-[5-(1,3-benzothiazol-2-yl)-2-methylphenyl]-4-methoxy-3-nitrobenzamide] | – | – | 27.6 µM | ~5.51 µM | –
– | 6.07 µM | Cc1ccc(NC(=O)c2cc(NC(=O)c3cccs3)ccc2N2CCOCC2)cc1 [NB-17] | – | – | > 25 µM | ~3.14 µM | –
– | ~4.1 µM | COCOc1ccc2oc(-c3ccc(C)c([N+](=O)[O-])c3)nc2c1 [ND-96] | – | – | 30.1 µM | ~4.09 µM | –
– | 14.7 µM | CC(C)CC(=O)Nc1ccc2oc(-c3cccc(I)c3)nc2c1 [ND-5] | – | – | > 25 µM | 12.3 µM | –
10.7 µM | – | O=C(Nc1ccc(N2CCN(C(=O)c3cccs3)CC2)cc1)c1ccc(-c2ccccc2)nc1 [NA-41] | > 25 µM | 12.5 µM | – | – | –
– | 1.12 µM | COc1ccc(C(=O)Nc2cc(-c3nc4cc(C(C)C)ccc4o3)ccc2C)cc1[N+](=O)[O-] [ND-2] | – | – | 27.6 µM | 4.47 µM | –
– | 2.23 µM | O=C(Nc1ccc(N2CCOCC2)c(C(=O)Nc2ccc(OCc3ccccc3)cc2)c1)c1cccs1 [NB-18] | – | – | > 25 µM | 3.66 µM | –
– | ~12.4 µM | COc1ccc(C(=O)Nc2nc(-c3cc4ccccc4oc3=O)cs2)cc1 [ND-1] | – | – | > 25 µM | ~12.7 µM | –
– | 2.53 µM | Cc1ccc(NC(=O)c2cc(NC(=O)c3ccccc3)ccc2N2CCOCC2)cc1Cl [NB-1] | – | – | 32.8 µM | 2.54 µM | –
– | ~1.57 µM | Cc1ccc(NC(=O)c2cc(NC(=O)Cc3ccccc3)ccc2N2CCOCC2)cc1Cl [NB-3] | – | – | 52.5 µM | – | activation at 25 µM ([2]; THP1-Dual, 24 h, Human Reporter Cell Line THP1, @25 uM, read-out: THP1 NFkB % activation at peak): 38%
– | 32.1 µM | ClCCCOc1ccc(-c2nc3cc(OCCCN4CCCC4)ccc3o2)cc1 [ND-94] | – | – | > 25 µM | ~23.6 µM | –

The next lines start with the compound.

Structure (SMILES) | EC50 [1, 4] | EC50 [1, 5] | CC50 ([3]; Human Reporter Cell Line) | EC50 [2, 4] | CC50 ([3]; Human Reporter Cell Line THP1) | EC50 [2, 5] | also measured
COc1ccc(C(=O)Nc2cc(-c3nc4ccccc4s3)ccc2C)cc1[N+](=O)[O-] [ND-38] | – | – | – | – | – | – | EC50 ([1]; Human Reporter Cell Line THP1): 4.29 µM; EC50 ([2]; Human Reporter Cell Line THP1): ~3.12 µM
Cc1c(Br)ccc(C(=O)Nc2ccc(N3CCN(C(=O)c4cccs4)CC3)cc2)c1C [NA-16] | 6.46 µM | – | > 25 µM | ~5.23 µM | – | – | –
O=C(Nc1ccc(N2CCN(C(=O)c3cccs3)CC2)cc1)c1ccc(-c2cc3ccccc3oc2=O)cc1 [NA-32] | 1.43 µM | – | 36.6 µM | 3.13 µM | – | – | –
O=C(Nc1ccc(N2CCN(C(=O)c3ccsc3)CC2)cc1)c1ccc(OCc2ccccc2)nc1 [NA-1] | 1.94 µM | – | 10.5 µM | 2.07 µM | – | – | –
O=C(Nc1ccc(N2CCN(C(=O)c3cccs3)CC2)cc1)c1sc2cc(Cl)ccc2c1Cl [NA-20] | 1.94 µM | – | 11.8 µM | 2.76 µM | – | – | –
CCOc1ccc(C(=O)Nc2ccc(N3CCN(C(=O)c4cccs4)CC3)cc2)cc1Br [NA-30] | 2.68 µM | – | 18.8 µM | 1.05 µM | – | – | –
O=C(Nc1ccc(N2CCN(C(=O)c3cccs3)CC2)cc1)c1ccc(-c2ccncc2)cc1 [NA-38] | ~11.2 µM | – | > 25 µM | 3.46 µM | – | – | –
O=C(Nc1ccc(N2CCN(C(=O)c3cccs3)CC2)cc1)c1ccc(OCc2ccc(F)c(F)c2F)cc1 [NA-23] | 1.71 µM | – | 12.7 µM | ~2.31 µM | – | – | –
COc1cccc(COc2ccc(C(=O)Nc3ccc(N4CCN(C(=O)c5cccs5)CC4)cc3)cc2)c1 [NA-24, 4-((3-methoxybenzyl)oxy)-N-(4-(4-(thiophene-2-carbonyl)piperazin-1-yl)phenyl)benzamide] | 3.14 µM | – | 16.8 µM | 4.16 µM | – | – | –
CCOc1cccc(COc2ccc(C(=O)Nc3ccc(N4CCN(C(=O)c5cccs5)CC4)cc3)cc2)c1 [NA-42, 4-((3-ethoxybenzyl)oxy)-N-(4-(4-(thiophene-2-carbonyl)piperazin-1-yl)phenyl)benzamide] | – | – | – | – | – | – | IRF3 and NF-κB reporter activity ([1]; 8-point dose response): high IRF3 activity and low off-target NF-κB activation
Cc1ccc2c(=O)c3cccc(CC(=O)O)c3oc2c1C [DMXAA, 5,6-dimethylxanthenone-4-acetic acid] | – | – | – | – | – | – | ISRE activation in THP1-Dual cell line ([1]; THP1-Dual): not effective
Cc1ccc(COc2ccc(C(=O)Nc3ccc(N4CCN(C(=O)c5cccs5)CC4)cc3)cc2)cc1 [NA-25] | 3.29 µM | – | 35.5 µM | 5 µM | – | – | –
O=C(Nc1ccc(N2CCN(C(=O)c3cccs3)CC2)cc1)c1ccc(Br)cc1 [NA-14] | ~2.62 µM | – | > 25 µM | ~2.42 µM | – | – | –
CCOc1cccc(COc2ccc(C(=O)Nc3ccc(N4CCN(C(=O)c5cccs5)CC4)cc3)cc2)c1 [NA42, 4-((3-ethoxybenzyl)oxy)-N-(4-(4-(thiophene-2-carbonyl)piperazin-1-yl)phenyl)benzamide] | 3.6 µM | – | 121 µM | 3.04 µM | – | – | –
COc1ccc(C(=O)Nc2cc(-c3nc4cc(C)c(C)cc4o3)ccc2C)cc1[N+](=O)[O-] [ND-13, N-(5-(5,6-dimethylbenzo[d]oxazol-2-yl)-2-methylphenyl)-4-methoxy-3-nitrobenzamide] | – | – | – | – | – | – | IRF3 and NF-κB reporter activity ([1]; 8-point dose response): high IRF3 activity and low off-target NF-κB activation
O=C(Nc1ccc(N2CCN(C(=O)c3cccs3)CC2)cc1)c1ccc(OCc2cccc(Cl)c2)cc1 [NA-33] | 1.84 µM | – | 9.58 µM | 1.62 µM | – | – | –
COc1ccc(C(=O)Nc2cc(-c3nc4cc(C)c(C)cc4o3)ccc2C)cc1[N+](=O)[O-] [ND13, N-(5-(5,6-dimethylbenzo[d]oxazol-2-yl)-2-methylphenyl)-4-methoxy-3-nitrobenzamide] | – | 0.975 µM | – | – | 8.76 µM | 0.556 µM | –
O=C(Nc1ccc(N2CCN(C(=O)c3cccs3)CC2)cc1)c1ccc(-c2ccccc2)cn1 [NA-39] | 7.02 µM | – | > 25 µM | 7.91 µM | – | – | –
O=C(Nc1ccc(N2CCN(C(=O)c3cccs3)CC2)cc1)c1cccc2c(Br)cccc12 [NA-21, 5-bromo-N-{4-[4-(2-thienylcarbonyl)-1-piperazinyl]phenyl}-1-naphthamide] | 0.73 µM | – | 39.4 µM | 1.08 µM | – | – | –
O=C(Nc1ccc(N2CCN(C(=O)c3cccs3)CC2)cc1)c1ccc(Cl)c2ccccc12 [NA13] | ~1.55 µM | – | > 25 µM | 1.22 µM | – | – | –
